The values that follow come from patent US12459943B2, “Crystalline solid forms of a BET inhibitor” (Incyte Corporation, priority 2016, dated 2025).

Data set [1] can be described thus: Stability of crystalline forms in aqueous suspension. The format is physicochemical. The procedure:
Recrystallization conducted in a mixture of tetrahydrofuran (THF), acetone, and n-heptane using similar procedures as above afford Form II of the crystalline Compound 1 drug substance was obtained. Both Form I and Form II have very sharp melting endotherm peaks on DSC, and the two forms are about one degree difference in peak melting temperature: 266.4° C. for Form I and 267.5° C. for Form II.

Data set [2] in a line: Relative stability and interconversion of crystalline forms in organic solvents. Type of data set: physicochemical.

Consider `CN1C(=O)C(C)(C)Oc2c(-c3cn(C)c(=O)c4[nH]ccc34)cc(S(C)(=O)=O)cc21` [Form I, 2,2,4-trimethyl-8-(6-methyl-7-oxo-6,7-dihydro-1H-pyrrolo[2,3-c]pyridin-4-yl)-6-(methylsulfonyl)-2H-benzo[b][1,4]oxazin-3(4H)-one], for which the “stability in aqueous suspension” value in data set [1] is “stable in aqueous suspension”. Also, the “relative stability of the crystalline form in MeOH and acetone” value in data set [2] (MeOH and acetone) was “most stable form”. In addition, the interconversion of forms entry in data set [2] (mixture of methanol, acetone, and n-heptane, depending on solvent ratio, temperature, and time) is listed as “could be interconverted to each other”.

In the case of `CN1C(=O)C(C)(C)Oc2c(-c3cn(C)c(=O)c4[nH]ccc34)cc(S(C)(=O)=O)cc21` [Form II, 2,2,4-trimethyl-8-(6-methyl-7-oxo-6,7-dihydro-1H-pyrrolo[2,3-c]pyridin-4-yl)-6-(methylsulfonyl)-2H-benzo[b][1,4]oxazin-3(4H)-one], the “relative stability of the crystalline form in IPA” value in data set [2] (IPA) is listed as “more stable”.
